Target: T1, human F508del CFTR (Homo sapiens, UniProt P13569, DEL508-508)
T1 construct: expressed in transfected cells; host or cells: Fisher Rat Thyroid (FRT) cells
Test: CFTR-YFP High Throughput Assay
Type: cell-based
Settings: FRT cells expressing human F508del CFTR and YFP
In short: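 FRT cells stably co-expressing human F508del CFTR and halide-sensitive YFP-H148Q/I152L; for correction, compound (2 nM-40 μM) incubated 24-26 h at 37° C, washed, then stimulated 60-120 min at RT with 20 μM forskolin plus 30 μM potentiator P3. Iodide-induced YFP quench (Ex 500/Em 540 nm) recorded; quench rates least-squares fitted.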

T1 sequence (P13569 with tags, fused parts or gaps DEL508-508): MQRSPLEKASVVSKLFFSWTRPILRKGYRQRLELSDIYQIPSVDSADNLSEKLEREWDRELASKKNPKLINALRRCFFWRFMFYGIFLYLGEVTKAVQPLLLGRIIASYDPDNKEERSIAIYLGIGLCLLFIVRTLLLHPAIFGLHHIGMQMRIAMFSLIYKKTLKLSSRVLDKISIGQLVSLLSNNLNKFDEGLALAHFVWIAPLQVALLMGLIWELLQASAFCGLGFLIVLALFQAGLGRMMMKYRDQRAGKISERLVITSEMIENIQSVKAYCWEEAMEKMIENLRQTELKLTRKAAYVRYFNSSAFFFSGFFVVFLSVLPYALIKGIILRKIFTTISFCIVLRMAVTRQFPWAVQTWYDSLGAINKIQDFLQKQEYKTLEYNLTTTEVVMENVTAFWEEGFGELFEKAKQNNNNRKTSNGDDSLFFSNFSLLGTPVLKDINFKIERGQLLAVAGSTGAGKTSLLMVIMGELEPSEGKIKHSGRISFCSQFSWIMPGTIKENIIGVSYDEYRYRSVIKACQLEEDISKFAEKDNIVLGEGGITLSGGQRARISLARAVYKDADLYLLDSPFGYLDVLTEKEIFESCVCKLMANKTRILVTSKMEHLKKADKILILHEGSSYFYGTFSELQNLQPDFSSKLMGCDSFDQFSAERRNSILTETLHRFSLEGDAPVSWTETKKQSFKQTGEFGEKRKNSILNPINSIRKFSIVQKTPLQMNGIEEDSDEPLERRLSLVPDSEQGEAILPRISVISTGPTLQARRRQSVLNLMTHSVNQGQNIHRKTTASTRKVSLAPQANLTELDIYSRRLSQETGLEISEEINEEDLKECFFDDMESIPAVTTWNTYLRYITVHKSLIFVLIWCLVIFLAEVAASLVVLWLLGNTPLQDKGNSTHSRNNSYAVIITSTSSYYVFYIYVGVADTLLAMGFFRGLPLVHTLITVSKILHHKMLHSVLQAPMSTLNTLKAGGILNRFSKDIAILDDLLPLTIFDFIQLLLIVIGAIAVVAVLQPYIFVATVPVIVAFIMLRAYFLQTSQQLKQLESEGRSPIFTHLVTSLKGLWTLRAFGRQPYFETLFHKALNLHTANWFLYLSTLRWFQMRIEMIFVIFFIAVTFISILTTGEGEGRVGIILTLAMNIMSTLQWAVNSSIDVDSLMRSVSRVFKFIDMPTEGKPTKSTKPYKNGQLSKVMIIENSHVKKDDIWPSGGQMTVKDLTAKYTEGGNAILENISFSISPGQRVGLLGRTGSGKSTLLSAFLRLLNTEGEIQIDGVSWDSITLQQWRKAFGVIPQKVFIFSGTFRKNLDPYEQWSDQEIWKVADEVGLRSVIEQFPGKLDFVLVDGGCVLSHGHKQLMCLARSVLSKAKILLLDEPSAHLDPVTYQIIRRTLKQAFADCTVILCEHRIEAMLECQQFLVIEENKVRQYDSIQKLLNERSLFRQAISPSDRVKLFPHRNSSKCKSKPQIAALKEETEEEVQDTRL

Structure (SMILES): COc1ccc2c(c1)c1c(=O)n(CC(=O)N(C)c3ccc4nc(C)oc4c3)ncc1n2Cc1ccc(F)cc1 [Example 260, 2-(5-(4-fluorobenzyl)-8-methoxy-1-oxo-1,5-dihydro-2H-pyridazino[4,5-b]indol-2-yl)-N-methyl-N-(2-methylbenzo[d]oxazol-6-yl)acetamide]
- Emax (EMax normalized to the positive control, read-out: % Efficacy): > 80%
- EC50: < 10 µM
